Experimental data as given in PMC9143880, “Improving Antimicrobial Activity and Physico-Chemical Properties by Isosteric Replacement of 2-Aminothiazole with 2-Aminooxazole” (Pharmaceuticals, 2022).
≈ marks a conversion by molar mass, not a printed value. Where two headings read alike, the source gives them in different places.

Tests used:
[1] = test system: Candida tropicalis CCM 8264 (ATCC 750); experiment: Antifungal microdilution broth (EUCAST); details: Candida tropicalis, 24 h, read-out: MIC CT
[2] = test system: Staphylococcus epidermidis CCM 4418 (ATCC 12228); experiment: Antibacterial microdilution broth (EUCAST); type: cell-based; details: Staphylococcus epidermidis; 24h incubation; read-out: MIC SE
[3] = test system: Enterococcus faecalis CCM 4224 (ATCC 29212); experiment: Antibacterial microdilution broth (EUCAST); type: cell-based; details: Enterococcus faecalis; 24h incubation; read-out: MIC EF
[4] = test system: M. avium DSM 44156 (ATCC 25291); experiment: Antimycobacterial MIC, microdilution broth / resazurin; type: cell-based, Mycobacterium avium; details: resazurin after 96 h; for MIC: Mycobacterium avium, read-out: MIC M. avium
[5] = RP-UHPLC lipophilicity parameter log k’w; type: physicochemical; details: for log k’w: RP-UHPLC, acetonitrile/water, log k extrapolated to 0% acetonitrile; for logkw: experimental lipophilicity parameter
Excerpt: Lipophilicity and water solubility of the drug candidates are important parameters as they are often directly related to their ADME properties in the organism. Lipophilicity is usually expressed as the logarithm of the partition coefficient in n-octanol/water (log P). Due to its laborious determination, especially in the HTS screening, other experimental methods such as RP-HPLC log k’w or purely computational approaches such as Clog P were proposed and have been established as reasonable estimators of true lipophilicity. To investigate the changes in lipophilicity upon introduction of oxazole in the title compounds, we determined the log k’w of all derivatives and compared respective values among the pairs.
The log k of the synthesized compounds was measured using the same instrument (single measurement per concentration), software, and column as was used in the purity evaluation. Working solutions were diluted as described above for purity determination. The log k parameter was calculated after the UHPLC measurements using isocratic mode with mobile phase acetonitrile (B)/water (A) in a set of concentrations of 40, 45, 50% and 20, 30, 40% B for subtype I and subtype II, respectively.

[6] = test system: Mycobacterium tuberculosis H37Ra ITM-M006710 (ATCC 9431); experiment: Antimycobacterial MIC, microdilution broth / Alamar Blue (resazurin); type: cell-based; details: Mycobacterium tuberculosis
[7] = test system: Lichtheimia corymbifera CCM 8077; experiment: Antifungal microdilution broth (EUCAST); details: Lichtheimia corymbifera, CCM8077, 24 h, read-out: MIC LC
[8] = test system: M. aurum DSM 43999 (ATCC 23366); experiment: Antimycobacterial MIC, microdilution broth / resazurin; type: cell-based; details: Mycolicibacterium aurum; resazurin after 72 h; read-out: MIC M. aurum
[9] = test system: Candida parapsilosis CCM 8260 (ATCC 22019); experiment: Antifungal microdilution broth (EUCAST); details: Lodderomyces parapsilosis, 24 h, read-out: MIC CP
[10] = test system: Candida krusei CCM 8271 (ATCC 6258); experiment: Antifungal microdilution broth (EUCAST); details: Pichia kudriavzevii, 24 h, read-out: MIC CK
[11] = test system: M. kansasii DSM 44162 (ATCC 12478); experiment: Antimycobacterial MIC, microdilution broth / resazurin; type: cell-based; details: Mycobacterium kansasii, read-out: MIC M. kansasii
[12] = test system: Pseudomonas aeruginosa CCM 3955 (ATCC 27853); experiment: Antibacterial microdilution broth (EUCAST); type: cell-based; details: Pseudomonas aeruginosa; 72h incubation; read-out: MIC PA
[13] = test system: Escherichia coli CCM 3954 (ATCC 25922); experiment: Antibacterial microdilution broth (EUCAST); type: cell-based; details: Escherichia coli; 24h incubation; read-out: MIC EC
[14] = test system: Staphylococcus aureus subsp. aureus CCM 4223 (ATCC 29213); experiment: Antibacterial microdilution broth (EUCAST); type: cell-based; details: Staphylococcus aureus; 24h incubation; read-out: MIC SA
[15] = test system: Aspergillus flavus CCM 8363; experiment: Antifungal microdilution broth (EUCAST); details: Aspergillus flavus, CCM8363, 24 h, read-out: MIC AFla
HepG2 cells = experiment: HepG2 cytotoxicity screening (CellTiter 96); type: cell-based, human; details: for IC50: Homo sapiens, HepG2, 24 h, 24 h incubation, CellTiter 96, * above highest tested concentration, ** limited by insolubility in medium; for SI: SI = IC50 (µM) HepG2 / MICH37Ra (µM)
[16] = test system: M. smegmatis DSM 43465 (ATCC 607); experiment: Antimycobacterial MIC, microdilution broth / resazurin; type: cell-based; details: Mycolicibacterium smegmatis; resazurin after 48 h; read-out: MIC M. smegmatis
[17] = test system: Aspergillus fumigatus ATCC 204305; experiment: Antifungal microdilution broth (EUCAST); details: Aspergillus fumigatus, ATCC204305, 24 h, read-out: MIC AF
[18] = test system: Staphylococcus aureus subsp. aureus (MRSA) CCM 4750 (ATCC 43300); experiment: Antibacterial microdilution broth (EUCAST); type: cell-based; details: Staphylococcus aureus; 24h incubation; read-out: MIC MRSA
[19] = test system: Candida albicans CCM 8320 (ATCC 24433); experiment: Antifungal microdilution broth (EUCAST); details: Candida albicans, 24 h, read-out: MIC CA
[20] = test system: Trichophyton interdigitale CCM 8377 (ATCC 9533); experiment: Antifungal microdilution broth (EUCAST); details: Trichophyton interdigitale, 72 h, read-out: MIC TI
[21] = test system: Acinetobacter baumannii DSM 30007 (ATCC 19606); experiment: Antibacterial microdilution broth (EUCAST); type: cell-based; details: Acinetobacter baumannii; 24h incubation; read-out: MIC AB
[22] = 120 h, Middlebrook 7H9, resazurin after 120 h, read-out: Mtb H37Ra MIC
[23] = recalculated from µg/mL, read-out: MICH37Ra

Row | SMILES | MIC [1] | MIC [2] | MIC [3] | MIC [4] | log k’w [5] | logkw [5] | MIC [6, 22] | MIC [7] | MIC [8] | MIC [9] | MIC [10] | MIC [12] | MIC [13] | MIC [14] | MIC [15] | MIC [16] | MIC [17] | MIC [18] | MIC [19] | MIC [20] | other results
1 | O=C(Nc1nccs1)c1ccncc1 [Compound 3a] | > 500 µM | > 500 µM | > 500 µM | ≥ 500 µg/mL | 1.306 | 1.306 | 250 µg/mL | > 500 µM | ≥ 500 µg/mL | > 500 µM | > 500 µM | > 500 µM | > 500 µM | > 500 µM | > 500 µM | ≥ 500 µg/mL | > 500 µM | > 500 µM | > 500 µM | > 500 µM | MIC ([11]; resazurin after 96 h): 250 µg/mL (≈ 1220 µM); IC50 (HepG2 cells): > 1000 µM; melting point: 194 to 195 °C; MIC [21]: > 500 µM
2 | Cc1cncc(C(=O)Nc2ncco2)c1 [Compound 4b] | > 500 µM | 500 µM (≈ 102 µg/mL) | > 500 µM | 125 µg/mL (≈ 615 µM) | 0.888 | 0.8881 | 7.81 µg/mL | > 500 µM | 31.2 µg/mL (≈ 154 µM) | > 500 µM | > 500 µM | > 500 µM | > 500 µM | 500 µM (≈ 102 µg/mL) | > 500 µM | ≥ 500 µg/mL | > 500 µM | 500 µM (≈ 102 µg/mL) | > 500 µM | > 500 µM | MIC [6, 23]: 38.4 µM; MIC ([11]; resazurin after 96 h): 62.5 µg/mL (≈ 308 µM); IC50 (HepG2 cells): > 1000 µM; SI (HepG2 cells): >26.0; melting point: 171 to 175 °C; MIC [21]: 500 µM (≈ 102 µg/mL)
3 | Cc1cc(C(=O)Nc2ncco2)ccn1 [Compound 5b] | > 125 µM | > 500 µM | > 500 µM | 62.5 µg/mL (≈ 308 µM) | 0.714 | 0.714 | 3.91 µg/mL | > 125 µM | 15.6 µg/mL (≈ 76.9 µM) | > 125 µM | > 125 µM | > 500 µM | > 500 µM | > 500 µM | > 125 µM | 250 µg/mL (≈ 1230 µM) | > 125 µM | > 500 µM | > 125 µM | > 125 µM | MIC [6, 23]: 19.2 µM; MIC ([11]; resazurin after 96 h): 31.2 µg/mL (≈ 154 µM); IC50 (HepG2 cells): > 1000 µM; SI (HepG2 cells): >52.0; melting point: 149 to 152 °C; MIC [21]: > 500 µM
4 | Cc1cc(C(=O)Nc2nc(-c3ccccc3)co2)cc(Cl)n1 [Compound 16b] | > 125 µM | 125 µM (≈ 39.2 µg/mL) | > 125 µM | 7.81 µg/mL (≈ 24.9 µM) | 2.251 | 2.251 | 15.6 µg/mL | > 125 µM | 7.81 µg/mL (≈ 24.9 µM) | > 125 µM | > 125 µM | > 125 µM | > 125 µM | 62.5 µM (≈ 19.6 µg/mL) | > 125 µM | 31.2 µg/mL (≈ 99.6 µM) | > 125 µM | 62.5 µM (≈ 19.6 µg/mL) | > 125 µM | 62.5 µM (≈ 19.6 µg/mL) | MIC ([11]; 96 h): 15.6 µg/mL (≈ 49.8 µM); melting point: 83 to 86 °C; MIC [21]: > 125 µM
5 | O=C(Nc1nc(-c2ccccc2)cs1)c1cnc2ccccc2n1 [Compound 19a] | > 125 µM | > 250 µM | > 250 µM | ≥ 500 µg/mL | 3.583 | 3.583 | ≥ 500 µg/mL | > 125 µM | ≥ 500 µg/mL | > 125 µM | > 125 µM | > 250 µM | > 250 µM | > 250 µM | > 125 µM | ≥ 500 µg/mL | > 125 µM | > 250 µM | > 125 µM | > 125 µM | MIC ([11]; resazurin after 96 h): ≥ 500 µg/mL; melting point: 217 to 219 °C; MIC [21]: > 250 µM
6 | O=C(Nc1nc(-c2ccccc2)co1)c1cnc2ccccc2n1 [Compound 19b] | > 125 µM | > 500 µM | > 500 µM | 7.81 µg/mL (≈ 24.7 µM) | 2.465 | 2.465 | ≥ 500 µg/mL | > 125 µM | ≥ 500 µg/mL | > 125 µM | > 125 µM | > 500 µM | > 500 µM | > 500 µM | > 125 µM | ≥ 500 µg/mL | > 125 µM | > 500 µM | > 125 µM | > 125 µM | MIC M. avium [4]: strongly active; MIC ([11]; resazurin after 96 h): 3.91 µg/mL (≈ 12.4 µM); melting point: 181 to 183 °C; MIC [21]: > 500 µM
